The values below come from PMC10186366 (ACS Pharmacology & Translational Science, 2023).

Usually IC50 stands for the midpoint of a concentration-inhibition curve. A word on the Ki: it is the dissociation constant of the complex between target and ligand, obtained from inhibition or displacement.

Experiment [1] concerns D4 CHO cells (expresses only human FRβ). The settings on record: 96 h; mean (standard error); previously published; cited from earlier work.
The subject of experiment [2] is RT16 CHO cells (expresses only human FRα). The settings on record: 96 h; mean (standard error); previously published; cited from earlier work.
Experiment [3] concerns PC43-10 CHO cells (expresses only human RFC). The conditions noted are these: 96 h; mean (standard error); previously published; cited from earlier work.
In experiment [4] the test system is KB tumor cells. In words: Metabolite rescue of growth inhibition in KB cells. The experiment is classed as cell-based, human. The settings on record: glycine- and nucleoside-free media; for Protection from growth inhibition by adenosine: inhibitor up to 1000 nM, 60 μM adenosine alone. The protocol:
Upper panel: schematic of C1 metabolism. Undefined abbreviations include the following: DHF, dihydrofolate; THF, tetrahydrofolate; FAICAR, formyl 5-aminoimidazole-4-carboxamide ribonucleotide; fGAR, formyl GAR; and 5,10-meTHF, 5,10-methylene tetrahydrofolate. Lower panels: KB cells were plated (4000 cells/well) in glycine-, nucleoside-, and folate-free RPMI 1640 medium with 10% dialyzed fetal bovine serum, antibiotics, L-glutamine, and 2 nM leucovorin over a range of inhibitor concentrations in the presence of adenosine (60 μM), glycine (160 μM), thymidine (10 μM), or AICA (320 μM). As shown, combined glycine plus adenosine or AICA was also tested to identify potential mitochondrial C1 targeting.[45] Cell proliferation was assayed with a fluorescence-based assay.[26] Data are representative of at least triplicate experiments (presented as mean values plus/minus standard errors). Methods are described in the Experimental Section, and additional metabolite rescue data for 4, 5, and 8–11 are presented in Figure S3 (Supporting Information).
Metabolite “rescue” experiments have been used to identify targeted pathways for novel antifolate inhibitors including de novo purine nucleotide and thymidylate biosynthesis (protection by adenosine and thymidine, respectively)[25]−[27],[29],[30],[32],[43],[45]−[47] and mitochondrial C1 metabolism (protection by glycine and adenosine).[45] To gain insights into the targeted pathways that contribute to the loss of KB tumor cell proliferation upon treatment with compounds 3–9, we tested the reversal of growth inhibition by the active compounds in Table 1 (up to 1000 nM) in glycine- and nucleoside-free media in the presence of 60 μM adenosine, 160 μM glycine, or 10 μM thymidine alone or with combined adenosine and glycine. The use of glycine- and nucleoside-free media for these experiments expands the ability to identify causal intracellular targets (including previously unrecognized mitochondrial targets[45]) that can be confirmed by targeted metabolomics and direct in vitro assays (below). […] The results of these experiments are shown in Figure 7 (lower panel) and in Figure S3 (Supporting Information).
AICA circumvents the first folate-dependent enzyme, GARFTase, and is directly metabolized to ZMP (AICAR), thus providing a substrate for AICARFTase[26],[32],[46] (Figure 7, upper panel). This distinguishes primary inhibition at GARFTase (protection by AICA) versus AICARFTase (incomplete protection by AICA) for inhibitors of de novo purine biosynthesis.[25]
Additional proliferation assays with metabolite rescue used KB cells to identify the targeted pathway and enzyme(s) in folate- and glycine-free RPMI1640, DFBS, 2 mM glutamine, and antibiotics. […] These assays have been previously described.[25],[26],[45]

The target in experiment [5] is T1, human GARFTase (Homo sapiens, UniProt P22102).
T1 construct: GARFTase (formyltransferase domain; residues 808–1010); made in house; host or cells: E. coli Rosetta (DE3)pLysS
T1 sequence (P22102 808-1010): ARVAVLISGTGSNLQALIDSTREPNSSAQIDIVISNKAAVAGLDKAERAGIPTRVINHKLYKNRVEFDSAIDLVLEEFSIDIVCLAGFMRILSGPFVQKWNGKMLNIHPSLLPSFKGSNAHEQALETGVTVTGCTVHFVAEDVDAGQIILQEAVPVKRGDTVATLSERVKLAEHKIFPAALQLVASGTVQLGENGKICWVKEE
Also on record: method as in PMID 33773393, PMID 31289137, PMID 27439469. The settings on record: mean (standard error); previously reported; cited from earlier work.

In experiment [6] the test system is KB human tumor cells (RFC/FRα/PCFT). The settings on record: 96 h, no folic acid; mean (standard error); previously published; cited from earlier work.
Experiment [7] addresses T2, SHMT2 (Homo sapiens, UniProt P34897).
T2 construct: N-terminal His6-tagged SHMT2 (residues 30–504); made in house; host or cells: E. coli Rosetta (DE3)pLysS
T2 sequence (P34897 30-504): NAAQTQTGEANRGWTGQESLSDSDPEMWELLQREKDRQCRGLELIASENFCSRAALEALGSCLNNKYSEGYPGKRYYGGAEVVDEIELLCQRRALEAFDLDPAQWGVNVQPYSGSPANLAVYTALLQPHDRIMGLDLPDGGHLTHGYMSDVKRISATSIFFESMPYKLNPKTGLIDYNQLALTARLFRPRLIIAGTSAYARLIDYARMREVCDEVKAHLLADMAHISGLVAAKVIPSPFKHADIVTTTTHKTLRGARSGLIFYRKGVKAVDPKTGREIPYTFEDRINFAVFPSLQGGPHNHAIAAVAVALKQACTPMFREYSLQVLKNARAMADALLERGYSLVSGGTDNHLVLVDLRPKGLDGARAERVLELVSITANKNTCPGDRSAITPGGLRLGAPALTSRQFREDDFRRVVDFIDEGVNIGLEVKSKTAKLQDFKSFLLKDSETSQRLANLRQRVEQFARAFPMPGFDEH
Description: SHMT2 coupled enzyme assay with MTHFD2 (NADH production). The experiment is classed as biochemical. The conditions noted are these: mean (standard error), at least three replicate assays.
Description: N-terminal His6-tagged SHMT2 (residues 30–504) and full-length MTHFD2 were expressed in Rosetta (DE3)pLysS cells. One liter cultures were grown in LB media with 100 mg/mL ampicillin and 35 mg/mL chloramphenicol at 37 °C until the OD600 was 0.6. […] The cells were pelleted and resuspended in 25 mL of 25 mM Tris–HCl, pH 7.5, 300 mM NaCl, and 5 mM β-Me. To lyse the cells, 40 mg lysozyme and 8 U DNAse I were added followed by incubation on ice for 15 min. The cells were then lysed by emulsification.
Purification of His-SHMT2 and His-MTHFD2 was by Ni-affinity chromatography (above). For further purification of His-SHMT2, pyridoxal 5′-phosphate (PLP) was added (3-fold excess to His-SHMT2) followed by incubation for 16–18 h. Further purification was by size exclusion chromatography on a Superdex 200 16/60 column (GE Healthcare) with monitoring of PLP absorbance at 435 nm. Purified His-SHMT2 was stored in 20 mM sodium phosphate buffer, pH 7.5, 100 mM potassium chloride, 0.2 mM EDTA, and 5 mM β-ME. To further purify MTHFD2, size exclusion chromatography was performed using a Superdex 200 16/60 column (GE Healthcare). His-MTHFD2 was stored in 50 mM Tris–HCl buffer, pH 7.5, 250 mM sodium chloride, 5% glycerol, and 0.5 mM tris(2-chloroethyl) phosphate (TCEP).
Kinetic measurements were recorded in triplicate in a UV-transparent 96-well plate (Costar 3635) at 298 nm using a BioTek Synergy Neo2 Plate Reader. Initial slopes were graphed against inhibitor concentrations and fit to a three-parameter nonlinear regression to calculate IC50 values for each compound (GraphPad Prism 8.0). […] SHMT2 activity was assayed by monitoring NADH production with a coupled assay including 500 nM His-SHMT2 and 10 μM His-MTHFD2 (1:200 molar ratio His-SHMT2/His-MTHFD2). NADH production by His-MTHFD2 was monitored by fluorescence at 470 nm with excitation at 360 nm (Synergy Neo2 Biotek plate reader). Inhibition constants (Ki’s) were calculated from the IC50 values using the equation Ki = IC50/([S]/KM + 1) and the Km and substrate concentration for THF. The THF concentration in the reaction was 50 mM.

Experiment [8] has as its system SHMT2 (mitochondrial C1 metabolism) in KB tumor cells. In words: Targeted metabolomics flux analysis with [2,3,3-2H]serine in KB cells. The experiment is classed as cell-based, human. The settings on record: 0.1 μM compound, 250 μM [2,3,3-2H]serine, versus vehicle-treated cells. The source says:
Serine is catabolized in the mitochondria via SHMT2, which converts serine to glycine and 5,10-methylene THF, the latter of which is metabolized by MTHFD2 to 10-CHOTHF and by MTHFD1L to formate (Figure 7).
The cells were processed for liquid chromatography–mass spectrometry (LC–MS) analysis of total serine and glycine, and deuterated serine (M + 3, M + 2, M + 1, and M + 0 serine, where M + n represents species with n deuterium atoms) and glycine (M + 1 and M + 0) isotopomers. The results are shown in Figure 8 and are compared to those for control (vehicle-treated) cells (labeled “N/A”).
Figure 8 Metabolomics flux analysis with [2,3,3-^2H]serine to assay mitochondrial C1 metabolism via SHMT2. (A) A schematic of [2,3,3-^2H]serine metabolism is shown. Heavy (^2H) atoms in serine (colored circles) are metabolized via SHMT2 initially followed by MTHFD2 and MTHFD1L to formate. (B, C) Total serine and glycine and the distribution of the serine (M + n, n = 0−3) and glycine (n = 0 or 1) isotopomers are shown. The loss of M + 3 serine corresponding to the metabolism of [2,3,3-^2H]serine to M + 1 glycine is a direct measure of SHMT2 activity in the cells.[45] Experimental methods are described in the Experimental Section. Results are shown as mean values plus/minus standard deviations (n = 3). *P < 0.05; **P < 0.01. […]
KB cells (1 × 10[6]) were seeded in each of three 60 mm dishes in folate-, serine-, and glycine-free RPMI1640 supplemented with 10% DFBS, 1% penicillin/streptomycin, 2 mM L-glutamine, 285 μM serine, 130 μM glycine, and 2 nM leucovorin. […] The targeted metabolites were quantitatively determined using the AB Sciex QTRAP 6500 LC–MS/MS system. […] Isotopomers were detected using multiple reaction monitoring (MRM) at the positive ionization mode. […] Absolute metabolite concentrations were calculated from calibration curves and then normalized to total protein concentrations measured from the postextraction pellet (solubilized in 0.5 N NaOH) using the Folin-phenol method.[53] […] To correct for multiple comparisons, adjusted p values were determined using Holm’s method.

Several values for one entry are separate records, joined by “and”; a condition that tells them apart may be missing. Equal values may be shown once.

With `Nc1nc2[nH]cc(CCc3ccc(C(=O)N[C@@H](CCC(=O)O)C(=O)O)cc3)c2c(=O)[nH]1` [PMX, reference compound], the IC50 was 60 nM in experiment [1] and 42 nM in experiment [2].

In the case of `Nc1nc2sc(CCCCc3csc(C(=O)N[C@@H](CCC(=O)O)C(=O)O)c3)cc2c(=O)[nH]1` [Compound 11], the half-inhibitory concentration (IC50) was above 1000 nM in experiment [3], 5.63 nM in experiment [1], 5.62 nM in experiment [2] and 6.85 nM in experiment [6]. In addition, in experiment [4], the “Protection from growth inhibition by adenosine” value is reported as “completely protective”. The Ki in experiment [5] is above 150 µM.

As for `Nc1nc2sc(CCCCc3ccc(C(=O)N[C@@H](CCC(=O)O)C(=O)O)cc3)cc2c(=O)[nH]1` [Compound 2], the results for the IC50 in experiment [3], in experiment [1] and in experiment [2] were above 1000 nM, 20 nM and 9 nM, respectively. Also, the “Protection from growth inhibition by glycine plus adenosine over adenosine alone” value in experiment [4] (160 μM glycine combined with 60 μM adenosine) is “substantially enhanced and was complete”. The molecule further had a Ki in experiment [7] of 12.4 µM. In experiment [8], the “Increase in M + 3 serine” value is 2–4 fold.

For the molecule `Nc1nc2sc(CCCc3csc(C(=O)N[C@@H](CCC(=O)O)C(=O)O)c3)cc2c(=O)[nH]1` [Compound 10], the IC50 in experiment [3] is above 1000 nM; in experiment [1], 0.24 nM; in experiment [2], 0.4 nM and 0.44 nM; in experiment [6] it was 1.48 nM. For the same molecule, in experiment [4], the “Protection from growth inhibition by adenosine” value is reported as “completely protective”.
